Laboratory results published in patent US20260297109A1, “COMPOUNDS AS SUMO ACTIVATING ENZYME INHIBITORS” (WIGEN BIOMEDICINE TECHNOLOGY (SHANGHAI) CO., LTD., priority 2022, published 2026).

biological target: T1, SAE (Homo sapiens, UniProt Q9UBT2); test: SUMO IF: in vitro inhibitory activity assay against SAE in HCT116 cells (SUMO-2/3 immunofluorescence); type: cell-based; settings: class symbols, 6 h at 37° C.
T1 construct: endogenous in cells; host or cells: HCT116
T1 sequence (Q9UBT2 1-640): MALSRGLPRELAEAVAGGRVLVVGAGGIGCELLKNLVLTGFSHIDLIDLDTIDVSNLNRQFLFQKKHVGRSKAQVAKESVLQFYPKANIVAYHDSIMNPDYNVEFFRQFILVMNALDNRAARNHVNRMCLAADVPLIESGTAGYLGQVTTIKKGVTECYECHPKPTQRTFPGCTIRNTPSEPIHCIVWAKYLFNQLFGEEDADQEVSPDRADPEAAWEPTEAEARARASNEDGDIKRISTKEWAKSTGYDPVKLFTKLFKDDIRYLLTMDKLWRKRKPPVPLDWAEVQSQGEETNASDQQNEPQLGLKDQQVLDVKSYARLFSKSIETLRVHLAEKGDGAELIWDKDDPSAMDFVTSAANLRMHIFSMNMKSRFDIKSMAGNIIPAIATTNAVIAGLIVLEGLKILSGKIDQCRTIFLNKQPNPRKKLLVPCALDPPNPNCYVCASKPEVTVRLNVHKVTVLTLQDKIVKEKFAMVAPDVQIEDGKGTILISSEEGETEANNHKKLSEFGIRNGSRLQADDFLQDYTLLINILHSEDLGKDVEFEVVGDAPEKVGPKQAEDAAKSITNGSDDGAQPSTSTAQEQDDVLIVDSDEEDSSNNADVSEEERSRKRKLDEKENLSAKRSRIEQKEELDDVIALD
T1 sequence (Q9UBE0 1-346): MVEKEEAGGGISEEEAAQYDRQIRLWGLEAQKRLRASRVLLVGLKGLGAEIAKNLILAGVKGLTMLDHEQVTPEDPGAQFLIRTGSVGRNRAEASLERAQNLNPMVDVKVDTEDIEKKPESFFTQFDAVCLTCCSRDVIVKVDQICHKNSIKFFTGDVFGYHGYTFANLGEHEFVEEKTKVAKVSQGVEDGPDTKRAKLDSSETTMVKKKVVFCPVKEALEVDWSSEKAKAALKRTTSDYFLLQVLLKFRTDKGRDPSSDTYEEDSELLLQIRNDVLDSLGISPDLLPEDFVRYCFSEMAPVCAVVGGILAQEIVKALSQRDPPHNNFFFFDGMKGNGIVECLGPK
Method in brief: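 HCT116 cells were treated with compound for 6 h at 37 °C, then PFA-fixed, Triton-permeabilised and BSA-blocked. They were stained overnight at 4 °C with anti-SUMO-2/3 (18H8) rabbit mAb (1:400), then with FITC anti-rabbit IgG (1:300). Fluorescence versus DMSO gave inhibition rate and IC50.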

SMILES	IC50
NS(=O)(=O)OC[C@H]1[C@H](F)[C@@H](Nc2ncncc2C(=O)c2cc3c(s2)CNC[C@]32NCCc3ccc(Cl)cc32)C[C@@H]1O [Compound 584]	50 to 200 nM
NS(=O)(=O)OC[C@H]1[C@H](F)[C@@H](Nc2ncncc2C(=O)c2nc3c(s2)CCCC32NCCc3ccc(Cl)cc32)C[C@@H]1O (stereo partly drawn) [Compound 585]	> 200 nM
NS(=O)(=O)OC[C@H]1[C@H](F)[C@@H](Nc2ncncc2C(=O)c2nc3c(s2)CCC[C@@]32NCCc3ccc(Cl)cc32)C[C@@H]1O [Compound 586]	> 200 nM
NS(=O)(=O)OC[C@H]1[C@H](F)[C@@H](Nc2ncncc2C(=O)c2nc3c(s2)CCC[C@]32NCCc3ccc(Cl)cc32)C[C@@H]1O [Compound 587]	50 to 200 nM
NS(=O)(=O)OC[C@H]1[C@H](F)[C@@H](Nc2ncncc2C(=O)c2nc3c(s2)COCC32NCCc3ccc(Cl)cc32)C[C@@H]1O (stereo partly drawn) [Compound 588]	> 200 nM
NS(=O)(=O)OC[C@H]1[C@H](F)[C@@H](Nc2ncncc2C(=O)c2nc3c(s2)COC[C@@]32NCCc3ccc(Cl)cc32)C[C@@H]1O [Compound 589]	> 200 nM
NS(=O)(=O)OC[C@H]1[C@H](F)[C@@H](Nc2ncncc2C(=O)c2nc3c(s2)COC[C@]32NCCc3ccc(Cl)cc32)C[C@@H]1O [Compound 590]	> 200 nM
NS(=O)(=O)OC[C@H]1[C@H](F)[C@@H](Nc2ncncc2C(=O)c2nc3c(s2)CSCC32NCCc3ccc(Cl)cc32)C[C@@H]1O (stereo partly drawn) [Compound 591]	> 200 nM
NS(=O)(=O)OC[C@H]1[C@H](F)[C@@H](Nc2ncncc2C(=O)c2nc3c(s2)CSC[C@@]32NCCc3ccc(Cl)cc32)C[C@@H]1O [Compound 592]	> 200 nM
NS(=O)(=O)OC[C@H]1[C@H](F)[C@@H](Nc2ncncc2C(=O)c2nc3c(s2)CSC[C@]32NCCc3ccc(Cl)cc32)C[C@@H]1O [Compound 593]	50 to 200 nM
CN1CCc2ccc(Cl)cc2C12CCCc1sc(C(=O)c3cncnc3N[C@H]3C[C@H](O)[C@@H](COS(N)(=O)=O)[C@@H]3F)cc12 (stereo partly drawn) [Compound 594]	50 to 200 nM
CN1CCc2ccc(Cl)cc2[C@]12CCCc1sc(C(=O)c3cncnc3N[C@H]3C[C@H](O)[C@@H](COS(N)(=O)=O)[C@@H]3F)cc12 [Compound 595]	> 200 nM
CN1CCc2ccc(Cl)cc2[C@@]12CCCc1sc(C(=O)c3cncnc3N[C@H]3C[C@H](O)[C@@H](COS(N)(=O)=O)[C@@H]3F)cc12 [Compound 596]	50 to 200 nM
NS(=O)(=O)OC[C@H]1[C@H](F)[C@@H](Nc2ncncc2C(=O)c2cc3c(s2)CCCC32NCCc3cnc(Cl)cc32)C[C@@H]1O (stereo partly drawn) [Compound 597]	50 to 200 nM
NS(=O)(=O)OC[C@H]1[C@H](F)[C@@H](Nc2ncncc2C(=O)c2cc3c(s2)CCC[C@@]32NCCc3cnc(Cl)cc32)C[C@@H]1O [Compound 598]	> 200 nM
NS(=O)(=O)OC[C@H]1[C@H](F)[C@@H](Nc2ncncc2C(=O)c2cc3c(s2)CCC[C@]32NCCc3cnc(Cl)cc32)C[C@@H]1O [Compound 599]	≤ 50 nM
NS(=O)(=O)OC[C@H]1[C@H](F)[C@@H](Nc2ncncc2C(=O)c2cc3c(s2)CCCC32NCCc3ccc(Cl)nc32)C[C@@H]1O (stereo partly drawn) [Compound 600]	≤ 50 nM
NS(=O)(=O)OC[C@H]1[C@H](F)[C@@H](Nc2ncncc2C(=O)c2cc3c(s2)CCC[C@@]32NCCc3ccc(Cl)nc32)C[C@@H]1O [Compound 601]	> 200 nM
NS(=O)(=O)OC[C@H]1[C@H](F)[C@@H](Nc2ncncc2C(=O)c2cc3c(s2)CCC[C@]32NCCc3ccc(Cl)nc32)C[C@@H]1O [Compound 602]	≤ 50 nM
NS(=O)(=O)OC[C@H]1[C@H](F)[C@@H](Nc2ncncc2C(=O)c2cc3c(s2)CCCC32NCCc3ncc(Cl)cc32)C[C@@H]1O (stereo partly drawn) [Compound 603]	50 to 200 nM
NS(=O)(=O)OC[C@H]1[C@H](F)[C@@H](Nc2ncncc2C(=O)c2cc3c(s2)CCC[C@@]32NCCc3ncc(Cl)cc32)C[C@@H]1O [Compound 604]	> 200 nM
NS(=O)(=O)OC[C@H]1[C@H](F)[C@@H](Nc2ncncc2C(=O)c2cc3c(s2)CCC[C@]32NCCc3ncc(Cl)cc32)C[C@@H]1O [Compound 605]	≤ 50 nM
NS(=O)(=O)OC[C@H]1[C@H](F)[C@@H](Nc2ncncc2C(=O)c2cc3c(s2)CSCC32NCCc3cnc(Cl)cc32)C[C@@H]1O (stereo partly drawn) [Compound 606]	50 to 200 nM

SMILES	IC50
NS(=O)(=O)OC[C@H]1[C@H](F)[C@@H](Nc2ncncc2C(=O)c2cc3c(s2)CSC[C@@]32NCCc3cnc(Cl)cc32)C[C@@H]1O [Compound 607]	> 200 nM
NS(=O)(=O)OC[C@H]1[C@H](F)[C@@H](Nc2ncncc2C(=O)c2cc3c(s2)CSC[C@]32NCCc3cnc(Cl)cc32)C[C@@H]1O [Compound 608]	≤ 50 nM
NS(=O)(=O)OC[C@H]1[C@H](F)[C@@H](Nc2ncncc2C(=O)c2cc3c(s2)CSCC32NCCc3ccc(Cl)nc32)C[C@@H]1O (stereo partly drawn) [Compound 609]	50 to 200 nM
NS(=O)(=O)OC[C@H]1[C@H](F)[C@@H](Nc2ncncc2C(=O)c2cc3c(s2)CSC[C@@]32NCCc3ccc(Cl)nc32)C[C@@H]1O [Compound 610]	> 200 nM
NS(=O)(=O)OC[C@H]1[C@H](F)[C@@H](Nc2ncncc2C(=O)c2cc3c(s2)CSC[C@]32NCCc3ccc(Cl)nc32)C[C@@H]1O [Compound 611]	≤ 50 nM
NS(=O)(=O)OC[C@H]1[C@H](F)[C@@H](Nc2ncncc2C(=O)c2cc3c(s2)CSCC32NCCc3ncc(Cl)cc32)C[C@@H]1O (stereo partly drawn) [Compound 612]	50 to 200 nM
NS(=O)(=O)OC[C@H]1[C@H](F)[C@@H](Nc2ncncc2C(=O)c2cc3c(s2)CSC[C@@]32NCCc3ncc(Cl)cc32)C[C@@H]1O [Compound 613]	> 200 nM
NS(=O)(=O)OC[C@H]1[C@H](F)[C@@H](Nc2ncncc2C(=O)c2cc3c(s2)CSC[C@]32NCCc3ncc(Cl)cc32)C[C@@H]1O [Compound 614]	≤ 50 nM
NS(=O)(=O)OC[C@H]1[C@H](F)[C@@H](Nc2ncncc2C(=O)c2cc3c(s2)CC2(CC2)CC32NCCc3ccc(Cl)cc32)C[C@@H]1O (stereo partly drawn) [Compound 615]	≤ 50 nM
NS(=O)(=O)OC[C@H]1[C@H](F)[C@@H](Nc2ncncc2C(=O)c2cc3c(s2)CCC[C@@]32NCC3(CC3)c3ccc(Cl)cc32)C[C@@H]1O [Compound 616]	> 200 nM
NS(=O)(=O)OC[C@H]1[C@H](F)[C@@H](Nc2ncncc2C(=O)c2cc3c(s2)CCC[C@]32NCC3(CC3)c3ccc(Cl)cc32)C[C@@H]1O [Compound 617]	≤ 50 nM
NS(=O)(=O)OC[C@H]1[C@H](F)[C@@H](Nc2ncncc2C(=O)c2cc3c(s2)C(F)=CC32NCCc3ccc(F)cc32)C[C@@H]1O (stereo partly drawn) [Compound 618]	50 to 200 nM
NS(=O)(=O)OC[C@H]1[C@H](F)[C@@H](Nc2ncncc2C(=O)c2cc3c(s2)C(F)=C[C@@]32NCCc3ccc(F)cc32)C[C@@H]1O [Compound 619]	> 200 nM
NS(=O)(=O)OC[C@H]1[C@H](F)[C@@H](Nc2ncncc2C(=O)c2cc3c(s2)C(F)=C[C@]32NCCc3ccc(F)cc32)C[C@@H]1O [Compound 620]	50 to 200 nM
CC1=CC2(NCCc3ccc(F)cc32)c2cc(C(=O)c3cncnc3N[C@H]3C[C@H](O)[C@@H](COS(N)(=O)=O)[C@@H]3F)sc21 (stereo partly drawn) [Compound 621]	50 to 200 nM
CC1=C[C@@]2(NCCc3ccc(F)cc32)c2cc(C(=O)c3cncnc3N[C@H]3C[C@H](O)[C@@H](COS(N)(=O)=O)[C@@H]3F)sc21 [Compound 622]	> 200 nM
CC1=C[C@]2(NCCc3ccc(F)cc32)c2cc(C(=O)c3cncnc3N[C@H]3C[C@H](O)[C@@H](COS(N)(=O)=O)[C@@H]3F)sc21 [Compound 623]	50 to 200 nM
NS(=O)(=O)OC[C@H]1[C@H](F)[C@@H](Nc2ncncc2C(=O)c2cc3c(s2)C(F)(F)CC32NCCc3ccc(F)cc32)C[C@@H]1O (stereo partly drawn) [Compound 624]	50 to 200 nM
NS(=O)(=O)OC[C@H]1[C@H](F)[C@@H](Nc2ncncc2C(=O)c2cc3c(s2)C(F)(F)C[C@@]32NCCc3ccc(F)cc32)C[C@@H]1O [Compound 625]	> 200 nM
NS(=O)(=O)OC[C@H]1[C@H](F)[C@@H](Nc2ncncc2C(=O)c2cc3c(s2)C(F)(F)C[C@]32NCCc3ccc(F)cc32)C[C@@H]1O [Compound 626]	50 to 200 nM
NS(=O)(=O)OC[C@H]1[C@H](F)[C@@H](Nc2ncncc2C(=O)c2cc3c(s2)CCCC32NC(=O)Cc3ccc(Cl)cc32)C[C@@H]1O (stereo partly drawn) [Compound 627]	> 200 nM
NS(=O)(=O)OC[C@H]1[C@H](F)[C@@H](Nc2ncncc2C(=O)c2cc3c(s2)CCC[C@@]32NC(=O)Cc3ccc(Cl)cc32)C[C@@H]1O [Compound 628]	> 200 nM
